Laboratory results reported in US9776972B2, “Pyrazole derivatives as arginine methyltransferase inhibitors and uses thereof” (priority 2013, dated 2017).

Columns and labels:
[1] = target: T1, human PRMT6 (Homo sapiens, UniProt Q96LA8); assay: PRMT6 Biochemical Assay (3H-SAM Flashplate, peptide substrate); conditions: Biochemical IC50 PRMT6, single experiment or average of multiple experiments
T1 construct: Flag-PRMT6-His; made in house; host or cells: HEK 293F cells (BacMam baculovirus)
Description: (§1) S-adenosylmethionine (SAM), S-adenosylhomocysteine (SAH), bicine, Tween20, dimethylsulfoxide (DMSO), bovine skin gelatin (BSG), sodium butyrate and Tris(2-carboxyethyl)phosphine hydrochloride solution (TCEP) were purchased from Sigma-Aldrich at the highest level of purity possible. ^3H-SAM was purchase from American Radiolabeled Chemicals with a specific activity of 80 Ci/mmol. 384-well streptavidin Flashplates were purchased from PerkinElmer.
Peptide representative of human histone H4 residues 36-50 was synthesized with an N-terminal linker-affinity tag motif and a C-terminal amide cap by 21st Century Biochemicals.
The amplified gene was subcloned into pFastBacMam (Viva Biotech).
Recombinant baculovirus were generated according to Bac-to-Bac kit instructions (Life Technologies). […] Infections were carried out at 37° C. for 48 hours, harvested by centrifugation, and stored at −80° C. for purification.
Column was washed with 20 mM imidazole in the same buffer and Flag-PRMT6-His was eluted with 150 mM imidazole. […] Flag-PRMT6-His was eluted with 200 ug/ml FLAG peptide in the same buffer. Pooled fractions were dialysed in 20 mM Tris, 150 mM NaCl, 10% glycerol and 5 mM β-mercaptoethanol, pH 7.8.
General Procedure for PRMT6 Enzyme Assays on Peptide Substrates.
(§2) The assays were all performed in a buffer consisting of 20 mM Bicine (pH=7.6), 1 mM TCEP, 0.005% BSG, and 0.002% Tween 20, prepared on the day of use. […] DMSO (1 ul) was added to Columns 11, 12, 23, 24, rows A-H for the maximum signal control and 1 ul of SAH, a known product and inhibitor of PRMT6, was added to columns 11, 12, 23, 24, rows I-P for the minimum signal control. A cocktail (40 ul) containing the PRMT6 enzyme was added by Multidrop Combi (Thermo-Fisher). The compounds were allowed to incubate with PRMT6 for 30 min at room temperature, then a cocktail (10 ul) containing SAM and peptide was added to initiate the reaction (final volume=51 ul). […] The assays were stopped by the addition of non-radiolabeled SAM (10 ul) to a final concentration of 400 uM, which dilutes the ^3H-SAM to a level where its incorporation into the peptide substrate is no longer detectable. 50 ul of the reaction in the 384-well polypropylene plate was then transferred to a 384-well Flashplate and the biotinylated peptides were allowed to bind to the streptavidin surface for at least 1 hour before being washed once with 0.1% Tween20 in a Biotek ELx405 plate washer. The plates were then read in a PerkinElmer TopCount plate reader to measure the quantity of ^3H-labeled peptide bound to the Flashplate surface, measured as disintegrations per minute (dpm) or alternatively, referred to as counts per minute (cpm).
(§3) Where dpm=disintegrations per minute, cmpd=signal in assay well, and min and max are the respective minimum and maximum signal controls.
(§4) Where top and bottom are the normally allowed to float, but may be fixed at 100 or 0 respectively in a 3-parameter fit. The Hill Coefficient normally allowed to float but may also be fixed at 1 in a 3-parameter fit. Y is the % inhibition and X is the compound concentration.

[2] = target: human PRMT8 (Homo sapiens, UniProt Q9NR22); assay: PRMT8 Biochemical Assay (3H-SAM Flashplate, peptide substrate); conditions: single experiment or average of multiple experiments
Chain of human PRMT8 (Q9NR22 whole entry): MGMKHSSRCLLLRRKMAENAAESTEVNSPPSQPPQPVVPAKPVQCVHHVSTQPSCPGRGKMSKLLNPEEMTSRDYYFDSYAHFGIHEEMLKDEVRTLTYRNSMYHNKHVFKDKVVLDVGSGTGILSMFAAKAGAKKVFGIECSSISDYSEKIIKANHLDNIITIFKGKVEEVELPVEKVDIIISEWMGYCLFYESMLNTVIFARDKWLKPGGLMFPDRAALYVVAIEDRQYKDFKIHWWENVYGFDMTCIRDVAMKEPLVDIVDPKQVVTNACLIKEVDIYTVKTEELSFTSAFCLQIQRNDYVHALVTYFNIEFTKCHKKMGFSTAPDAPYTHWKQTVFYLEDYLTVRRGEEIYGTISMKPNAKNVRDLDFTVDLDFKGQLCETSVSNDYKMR
Description: as §1, with “isopropyl-β-D-thiogalactopyranoside (IPTG),” for “sodium butyrate”
Peptide representative of human histone H4 residues 31-45 was synthesized with an N-terminal linker-affinity tag motif and a C-terminal amide cap by 21st Century Biochemicals.
E. coli (BL21(DE3) Gold, Stratagene) made competent by the CaCl2 method were transformed with the PRMT8 construct and ampicillin selection. Protein over-expression was accomplished by growing the PRMT8 expressing E. coli clone and inducing expression with 0.3 mM IPTG at 16° C. The culture was grown for 12 hours, harvested by centrifugation, and stored at −80° C. for purification.
GST-tagged PRMT8 was eluted with 50 mM Tris, 2 mM glutathione, pH 7.8. Pooled fractions were cleaved by thrombin (10 U) and dialysed in buffer A. GST was removed by reloading the cleaved protein sample onto glutathione sepharose column and PRMT8 was collected in the flow-through fractions. PRMT8 was purified further by ceramic hydroxyapatite chromatography. The column was washed with 50 mM phosphate buffer, 100 mM NaCl, 5% glycerol, 5 mM β-mercaptoethanol, pH 7.8 and PRMT8 was eluted by 100 mM phosphate in the same buffer. Protein was concentrated and buffer was exchanged to 50 mM Tris, 300 mM NaCl, 10% glycerol, 5 mM β-mercaptoethanol, pH 7.8 by ultrafiltration.
General Procedure for PRMT8 Enzyme Assays on Peptide Substrates.
as §2, with “of PRMT8,” for “of PRMT6,”, “the PRMT8” for “the PRMT6”, “with PRMT8” for “with PRMT6”, “containing ^3H-SAM” for “containing SAM”
as §3, §4

[3] = target: T2, human PRMT1 (Homo sapiens, UniProt Q99873); assay: PRMT1 Biochemical Assay (3H-SAM Flashplate, peptide substrate); conditions: single experiment or average of multiple experiments
T2 construct: GST-tagged PRMT1; made in house; host or cells: High Five insect cells (baculovirus)
T2 sequence (Q99873 with tags, fused parts or gaps): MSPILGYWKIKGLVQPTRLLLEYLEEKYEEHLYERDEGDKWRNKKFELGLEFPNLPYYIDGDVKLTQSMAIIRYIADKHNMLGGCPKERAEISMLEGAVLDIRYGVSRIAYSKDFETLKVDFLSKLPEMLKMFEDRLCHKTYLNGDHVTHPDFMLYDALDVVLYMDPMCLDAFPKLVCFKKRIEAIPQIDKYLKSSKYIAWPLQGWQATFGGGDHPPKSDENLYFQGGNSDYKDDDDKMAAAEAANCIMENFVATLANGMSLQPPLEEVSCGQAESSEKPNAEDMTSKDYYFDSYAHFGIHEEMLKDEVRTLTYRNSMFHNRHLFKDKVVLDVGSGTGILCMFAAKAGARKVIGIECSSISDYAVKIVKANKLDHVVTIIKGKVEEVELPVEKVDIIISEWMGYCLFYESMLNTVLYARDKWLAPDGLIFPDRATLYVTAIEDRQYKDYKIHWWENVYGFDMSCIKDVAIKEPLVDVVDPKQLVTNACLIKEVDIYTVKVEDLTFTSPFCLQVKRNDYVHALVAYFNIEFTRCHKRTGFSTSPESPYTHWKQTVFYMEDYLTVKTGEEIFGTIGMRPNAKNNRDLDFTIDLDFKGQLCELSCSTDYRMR
Description: as §1, with “(BSG),” for “(BSG), sodium butyrate”
Recombinant baculovirus were generated according to Bac-to-Bac kit instructions (Life Technologies). […] Infections were carried out at 27° C. for 48 hours, harvested by centrifugation, and stored at −80° C. for purification.
GST-tagged PRMT1 was eluted with 50 mM Tris, 2 mM glutathione, pH 7.8, dialysed in buffer A and concentrated to 1 mg/mL.
General Procedure for PRMT1 Enzyme Assays on Peptide Substrates.
as §2, with “PRMT1,” for “PRMT6,”, “PRMT1” for “PRMT6”, “300” for “400”
as §3, §4

T1 sequence (Q96LA8 with tags, fused parts or gaps): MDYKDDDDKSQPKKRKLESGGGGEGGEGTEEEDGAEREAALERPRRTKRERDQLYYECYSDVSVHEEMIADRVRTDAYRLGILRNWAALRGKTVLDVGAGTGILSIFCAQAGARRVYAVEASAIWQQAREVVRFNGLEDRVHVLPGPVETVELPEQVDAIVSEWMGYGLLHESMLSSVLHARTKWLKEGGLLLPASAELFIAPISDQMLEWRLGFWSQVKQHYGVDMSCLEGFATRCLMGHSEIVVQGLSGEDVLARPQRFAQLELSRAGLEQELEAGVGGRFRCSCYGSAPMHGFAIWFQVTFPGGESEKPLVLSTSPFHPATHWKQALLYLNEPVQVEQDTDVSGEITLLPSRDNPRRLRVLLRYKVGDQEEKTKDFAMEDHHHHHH

Row | IC50 [1] [nM] | IC50 [2] [nM] | IC50 [3] [nM] | Structure (SMILES)
1 | 2440 | 22400 |  | CNCCN(C)Cc1c[nH]nc1-c1ccccc1Oc1ccccc1 [Compound 36]
2 | 680 | 6760 | 700 | CNCCN(C)Cc1c[nH]nc1-c1ccccc1OC(F)(F)F [Compound 40]
3 | 968 | 12800 | 3160 | CNCCN(C)Cc1c[nH]nc1-c1cc(Cl)ccc1OC [Compound 53]
4 | 182 | 7500 | 569 | CNCCN(C)Cc1c[nH]nc1-c1cccc(OC)c1OC [Compound 54]
5 | 53.2 | 1540 | 170 | CCNCCN(C)Cc1c[nH]nc1-c1ccc(F)cc1 [Compound 60]
6 | 49.8 | 3110 | 336 | CN(CCN)Cc1c[nH]nc1-c1cc(F)ccc1Cl [Compound 106]
7 | 594 | 8520 | 1490 | CN(CCN)Cc1cnn(CC(O)CO)c1-c1ccc(F)cc1 (centres unmarked) [Compound 113]
8 | 20.5 | 5790 | 648 | CC(C)CC(=O)N1CCN(c2ccc(-c3n[nH]cc3CN(C)CCN)cc2)CC1 [Compound 180]
9 | 260 | 4820 | 2420 | CN(CCNC1CC1)Cc1c[nH]nc1-c1ccc(C#N)cc1 [Compound 183]
